Assay results taken from the supplement of paper PMC10307832.

Tests used:
Experiment in all cases: relative viability (nuclei count vs DMSO), 5 days (fraction); higher = more cells survive
NCI-H2405 = tested on: NCI-H2405
Method in brief: (§1)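 After 5 days of treatment, lung cancer cells in 1536-well plates were fixed and stained in a single step (final 0.05% Triton X-100, 1% formaldehyde, 1 ug/ml Hoechst) and their nuclei counted on 4× images. Treatment had been applied by pin tool the day after seeding as one drug alone or as a fixed anchor-drug dose with five library-drug doses (not always all listed) in √10 steps. Relative viability is the nuclei count of treated wells divided by that of vehicle wells, and values are medians of duplicate plates.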

NCI-H322M = tested on: NCI-H322M
Method in brief: as §1

LXF-289 = tested on: LXF-289
Method in brief: as §1

NCI-H2085 = tested on: NCI-H2085
Method in brief: as §1

SK-LU-1 = tested on: SK-LU-1
Method in brief: as §1

LOU-NH91 = tested on: LOU-NH91
Method in brief: as §1

HCC-827 = tested on: HCC-827
Method in brief: as §1

EPLC-272H = tested on: EPLC-272H
Method in brief: as §1

NCI-H1975 = tested on: NCI-H1975
Method in brief: as §1

NCI-H1666 = tested on: NCI-H1666
Method in brief: as §1

SW 900 = tested on: SW 900
Method in brief: as §1

NCI-H2126 = tested on: NCI-H2126
Method in brief: as §1

LCLC-103H = tested on: LCLC-103H
Method in brief: as §1

SW 1573 = tested on: SW 1573
Method in brief: as §1

HCC-78 = tested on: HCC-78
Method in brief: as §1

EMC-BAC-2 = tested on: EMC-BAC-2
Method in brief: as §1

LU99A = tested on: LU99A
Method in brief: as §1

NCI-H1563 = tested on: NCI-H1563
Method in brief: as §1

LK-2 = tested on: LK-2
Method in brief: as §1

ChaGo-K-1 = tested on: ChaGo-K-1
Method in brief: as §1

NCI-H23 = tested on: NCI-H23
Method in brief: as §1

NCI-H3122 = tested on: NCI-H3122
Method in brief: as §1

RERF-LC-KJ = tested on: RERF-LC-KJ
Method in brief: as §1

Work on `C=C1C(=O)O[C@@H](CCCCCCCC)[C@@H]1C(=O)O` [C-75] + COc1cccc2cc(-c3nc([C@H]4CC[C@H](C(=O)O)CC4)n4ncnc(N)c34)[nH]c12 [OSI-027] (partner 0.5 µM) yielded a relative viability (NCI-H2405; first compound 0.08 µM) of 0.7, a relative viability (NCI-H2405; first compound 0.253 µM) of 0.63 and a relative viability (NCI-H2405; first compound 0.8 µM) of 0.657. The relative viability (NCI-H2405; first compound 2.53 µM) was 0.519, the relative viability (NCI-H2405; first compound 8 µM) was 0.698 and the relative viability (NCI-H322M; first compound 0.08 µM) was 0.543. The relative viability (NCI-H322M; first compound 0.253 µM) was 0.7, the relative viability (NCI-H322M; first compound 0.8 µM) was 0.583 and the relative viability (NCI-H322M; first compound 2.53 µM) was 0.478. The relative viability (NCI-H322M; first compound 8 µM) was 0.588, the relative viability (LXF-289; first compound 0.08 µM) was 0.844 and the relative viability (LXF-289; first compound 0.253 µM) was 0.758. The relative viability (LXF-289; first compound 0.8 µM) was 0.719, the relative viability (LXF-289; first compound 2.53 µM) was 0.642 and the relative viability (LXF-289; first compound 8 µM) was 0.713. For the same compound, the relative viability (NCI-H2085; first compound 0.08 µM) was 0.882, the relative viability (NCI-H2085; first compound 0.253 µM) was 0.883 and the relative viability (NCI-H2085; first compound 0.8 µM) was 0.689. It also gave a relative viability (NCI-H2085; first compound 2.53 µM) of 0.757, a relative viability (NCI-H2085; first compound 8 µM) of 0.73 and a relative viability (SK-LU-1; first compound 0.08 µM) of 0.348. The relative viability (SK-LU-1; first compound 0.253 µM) was 0.379, the relative viability (SK-LU-1; first compound 0.8 µM) was 0.416 and the relative viability (SK-LU-1; first compound 2.53 µM) was 0.319. The relative viability (SK-LU-1; first compound 8 µM) was 0.308, the relative viability (LOU-NH91; first compound 0.08 µM) was 0.725 and the relative viability (LOU-NH91; first compound 0.253 µM) was 0.622. For the same compound, the relative viability (LOU-NH91; first compound 0.8 µM) was 0.68, the relative viability (LOU-NH91; first compound 2.53 µM) was 0.656 and the relative viability (LOU-NH91; first compound 8 µM) was 0.781. It also gave a relative viability (HCC-827; first compound 0.08 µM) of 0.757, a relative viability (HCC-827; first compound 0.253 µM) of 0.826 and a relative viability (HCC-827; first compound 0.8 µM) of 0.751. The relative viability (HCC-827; first compound 2.53 µM) was 0.597, the relative viability (HCC-827; first compound 8 µM) was 0.758 and the relative viability (EPLC-272H; first compound 0.08 µM) was 0.271. For the same compound, the relative viability (EPLC-272H; first compound 0.253 µM) was 0.302, the relative viability (EPLC-272H; first compound 0.8 µM) was 0.278 and the relative viability (EPLC-272H; first compound 2.53 µM) was 0.227. For the same compound, the relative viability (EPLC-272H; first compound 8 µM) was 0.235, the relative viability (NCI-H1975; first compound 0.08 µM) was 0.842 and the relative viability (NCI-H1975; first compound 0.253 µM) was 0.672. For the same compound, the relative viability (NCI-H1975; first compound 0.8 µM) was 0.679, the relative viability (NCI-H1975; first compound 2.53 µM) was 0.436 and the relative viability (NCI-H1975; first compound 8 µM) was 0.717. For the same compound, the relative viability (NCI-H1666; first compound 0.08 µM) was 0.798, the relative viability (NCI-H1666; first compound 0.253 µM) was 0.97 and the relative viability (NCI-H1666; first compound 0.8 µM) was 0.885. It also gave a relative viability (NCI-H1666; first compound 2.53 µM) of 0.726, a relative viability (NCI-H1666; first compound 8 µM) of 0.786 and a relative viability (SW 900; first compound 0.08 µM) of 0.555. The relative viability (SW 900; first compound 0.253 µM) was 0.842, the relative viability (SW 900; first compound 0.8 µM) was 0.441 and the relative viability (SW 900; first compound 2.53 µM) was 0.509. For the same compound, the relative viability (SW 900; first compound 8 µM) was 0.45, the relative viability (NCI-H2126; first compound 0.08 µM) was 0.762 and the relative viability (NCI-H2126; first compound 0.253 µM) was 0.757. For the same compound, the relative viability (NCI-H2126; first compound 0.8 µM) was 0.707, the relative viability (NCI-H2126; first compound 2.53 µM) was 0.744 and the relative viability (NCI-H2126; first compound 8 µM) was 0.66. For the same compound, the relative viability (LCLC-103H; first compound 0.08 µM) was 0.471, the relative viability (LCLC-103H; first compound 0.253 µM) was 0.495 and the relative viability (LCLC-103H; first compound 0.8 µM) was 0.432. The relative viability (LCLC-103H; first compound 2.53 µM) was 0.337, the relative viability (LCLC-103H; first compound 8 µM) was 0.472 and the relative viability (SW 1573; first compound 0.08 µM) was 0.705. The relative viability (SW 1573; first compound 0.253 µM) was 0.709, the relative viability (SW 1573; first compound 0.8 µM) was 0.555 and the relative viability (SW 1573; first compound 2.53 µM) was 0.634. For the same compound, the relative viability (SW 1573; first compound 8 µM) was 0.519, the relative viability (HCC-78; first compound 0.08 µM) was 0.354 and the relative viability (HCC-78; first compound 0.253 µM) was 0.42. It also gave a relative viability (HCC-78; first compound 0.8 µM) of 0.376, a relative viability (HCC-78; first compound 2.53 µM) of 0.329 and a relative viability (HCC-78; first compound 8 µM) of 0.422. For the same compound, the relative viability (EMC-BAC-2; first compound 0.08 µM) was 0.416, the relative viability (EMC-BAC-2; first compound 0.253 µM) was 0.385 and the relative viability (EMC-BAC-2; first compound 0.8 µM) was 0.384. For the same compound, the relative viability (EMC-BAC-2; first compound 2.53 µM) was 0.269, the relative viability (EMC-BAC-2; first compound 8 µM) was 0.341 and the relative viability (LU99A; first compound 0.08 µM) was 0.328. For the same compound, the relative viability (LU99A; first compound 0.253 µM) was 0.28, the relative viability (LU99A; first compound 0.8 µM) was 0.273 and the relative viability (LU99A; first compound 2.53 µM) was 0.252. The relative viability (LU99A; first compound 8 µM) was 0.325, the relative viability (NCI-H1563; first compound 0.08 µM) was 0.806 and the relative viability (NCI-H1563; first compound 0.253 µM) was 0.856. It also gave a relative viability (NCI-H1563; first compound 0.8 µM) of 0.791, a relative viability (NCI-H1563; first compound 2.53 µM) of 0.718 and a relative viability (NCI-H1563; first compound 8 µM) of 0.79. For the same compound, the relative viability (LK-2; first compound 0.08 µM) was 0.209, the relative viability (LK-2; first compound 0.253 µM) was 0.212 and the relative viability (LK-2; first compound 0.8 µM) was 0.222. It also gave a relative viability (LK-2; first compound 2.53 µM) of 0.16, a relative viability (LK-2; first compound 8 µM) of 0.145 and a relative viability (ChaGo-K-1; first compound 0.08 µM) of 0.605. The relative viability (ChaGo-K-1; first compound 0.253 µM) was 0.545, the relative viability (ChaGo-K-1; first compound 0.8 µM) was 0.532 and the relative viability (ChaGo-K-1; first compound 2.53 µM) was 0.422. For the same compound, the relative viability (ChaGo-K-1; first compound 8 µM) was 0.564, the relative viability (NCI-H23; first compound 0.08 µM) was 0.742 and the relative viability (NCI-H23; first compound 0.253 µM) was 0.698. The relative viability (NCI-H23; first compound 0.8 µM) was 0.575, the relative viability (NCI-H23; first compound 2.53 µM) was 0.375 and the relative viability (NCI-H23; first compound 8 µM) was 0.448. It also gave a relative viability (NCI-H3122; first compound 0.08 µM) of 1.1, a relative viability (NCI-H3122; first compound 0.253 µM) of 1.27 and a relative viability (NCI-H3122; first compound 0.8 µM) of 0.971. It also gave a relative viability (NCI-H3122; first compound 8 µM) of 0.854, a relative viability (RERF-LC-KJ; first compound 0.08 µM) of 0.713 and a relative viability (RERF-LC-KJ; first compound 0.253 µM) of 0.63. The relative viability (RERF-LC-KJ; first compound 0.8 µM) was 0.514, the relative viability (RERF-LC-KJ; first compound 2.53 µM) was 0.552 and the relative viability (RERF-LC-KJ; first compound 8 µM) was 0.561.
